One test relates to A549. Briefly: Cytotoxicity against human A549 cells after 2 days by XTT assay. Conditions: A549, 48 h. The class given is functional, cell-based. In general terms: Tetrazolium assays rely on reduction of a dye to a coloured formazan, in cell work by metabolically active cells.
In another test the test system is HOP-92. Briefly: Cytotoxicity against human HOP-92 cells after 2 days by XTT assay. The class given is functional, cell-based. Particulars: HOP-92, 48 h.
The subject of the next test is SF-295. Briefly: Cytotoxicity against human SF-295 cells after 2 days by XTT assay. Format: functional, cell-based. Conditions: SF-295, 48 h.
A further test relates to SF-539. Briefly: Cytotoxicity against human SF-539 cells after 2 days by XTT assay. The class given is functional, cell-based. Conditions: SF-539, 48 h.
The next test has as its system SNB-19. Briefly: Cytotoxicity against human SNB-19 cells after 2 days by XTT assay. Format: functional, cell-based. Particulars: SNB-19, 48 h.
Test [1] can be described thus: Cytotoxicity against human LOX cells after 2 days by XTT assay. The class given is functional, cell-based. Particulars: 48 h.
Another test relates to M14. Briefly: Cytotoxicity against human M14 cells after 2 days by XTT assay. Conditions: M14, 48 h. The class given is functional, cell-based.
A further test has as its system Malme-3M. Briefly: Cytotoxicity against human MALME-3M cells after 2 days by XTT assay. Format: functional, cell-based. Particulars: 48 h.
In a further test the test system is OVCAR-3. Briefly: Cytotoxicity against human OVCAR-3 cells after 2 days by XTT assay. Particulars: OVCAR-3, 48 h. Format: functional, cell-based.
Another test has as its system MCF7. Briefly: Cytotoxicity against human MCF7 cells after 2 days by XTT assay. Format: functional, cell-based. Conditions: MCF7, 48 h.
In another test the test system is NCI-H522. Briefly: Antitumor activity against human NCI-H522 cells xenografted in mouse assessed as cell growth at 40 mg/kg by hollow-fiber assay relative to control. Format: functional.
A further test concerns U-251. Briefly: Antitumor activity against human U251 cells xenografted in mouse assessed as cell growth at 40 mg/kg by hollow-fiber assay relative to control. Format: functional. Background: Xenograft models place foreign cells or tissue in a host animal.

The results in this text go back to ChEMBL document CHEMBL1141831, “Alertenone, a dimer of suberosenone from Alertigorgia sp” (J Nat Prod, 1999).

Each structure is given as a SMILES string. In brackets after ≈: the same amount, converted by molar mass.

As for `C=C1C(=O)C[C@H]2[C@@H]3CC[C@H](C)[C@]12CC3(C)C` [SUBEROSENONE], the IC50 stood at 1.63 µg/mL (≈ 7.47 µM) with A549; 0.11 µg/mL (≈ 0.504 µM) in the test on HOP-92; 0.03 µg/mL (≈ 0.137 µM) with SF-295; 0.002 µg/mL (≈ 0.00916 µM) with SF-539; 0.006 µg/mL (≈ 0.0275 µM) with SNB-19; 0.006 µg/mL (≈ 0.0275 µM) in test [1]. The IC50 in the test with M14 stood at 0.01 µg/mL (≈ 0.0458 µM); in the test with Malme-3M, 0.008 µg/mL (≈ 0.0366 µM); with OVCAR-3, 0.02 µg/mL (≈ 0.0916 µM); in the test on MCF7, 0.43 µg/mL (≈ 1.97 µM). Further, the Activity in the test with NCI-H522 and in the test with U-251 was 10% throughout.

Regarding `C=C1C(=O)[C@H](C[C@@H]2C(=O)C[C@H]3[C@@H]4CC[C@H](C)[C@]23CC4(C)C)[C@H]2[C@@H]3CC[C@H](C)[C@]12CC3(C)C` [ALERTENONE], the IC50 was 40 µg/mL (≈ 91.6 µM) with A549; 45 µg/mL (≈ 103 µM) in the test on HOP-92; 35 µg/mL (≈ 80.2 µM) in the test on SF-295; 35 µg/mL (≈ 80.2 µM) with SF-539; 45 µg/mL (≈ 103 µM) in the test with SNB-19; above 100 µg/mL in test [1]. The IC50 in the test with M14 was 40 µg/mL (≈ 91.6 µM); in the test with Malme-3M, 40 µg/mL (≈ 91.6 µM); in the test with OVCAR-3 it was 35 µg/mL (≈ 80.2 µM); in the test with MCF7, 40 µg/mL (≈ 91.6 µM).

Broadly, the IC50 is the concentration that inhibits the measured activity by half. A high value points to a need for much substance.
